Results as given in US20250242064A1, “CXCR4-TARGETING COMPOUNDS, AND METHODS OF MAKING AND USING THE SAME” (PROVINCIAL HEALTH SERVICES AUTHORITY, priority 2022, published 2025).
Where a SMILES comes first, the peptide text is derived from it. Bridges are numbered along the chain shown (N, C = ends). Side-chain parts run from the residue outwards. [ ]: non-standard residue; d: D form. The star is where a group is joined. X5 = O=C(O)CN1CCN(CC(=O)O)CCN(CC(=O)N[C@@H](CS(=O)(=O)O)C(=O)N[C@@H](CCCCNC(=O)CCCc2ccc(Cl)cc2)C(=O)*)CCN(CC(=O)O)CC1; X1 = O=C(O)CN1CCN(CC(=O)O)CCN(CC(=O)N[C@@H](CS(=O)(=O)O)C(=O)N[C@@H](CCCCNC(=O)CCCc2ccc(I)cc2)C(=O)*)CCN(CC(=O)O)CC1; DOTA = O=C(O)CN1CCN(CC(=O)O)CCN(CC(=O)*)CCN(CC(=O)O)CC1; NMeLys(iPr) = CN[C@@H](CCCCNC(C)C)C(=O)O; 2Nal = N[C@@H](Cc1ccc2ccccc2c1)C(=O)O; Lys(iPr) = CC(C)NCCCC[C@H](N)C(=O)O; Cya = N[C@@H](CS(=O)(=O)O)C(=O)O

Experiment: in vivo
Parameters: species or system mice
Conditions: male, NOD.Cg-Rag1tm1Mom Il2rgtm1Wjl/SzJ (NRG), mouse, iv, total radioactivity
Description: The Z138 Mantle cell lymphoma cell line was purchased from the American Type Culture Collection (ATCC©CRL-3001). The cell line was cultured in a 5% CO2 atmosphere at 37° C. in a humidified incubator with IMDM medium supplemented with 10% fetal bovine serum, 100 I.U./mL penicillin, and 100 μg/mL streptomycin.
[^68Ga]GaCl3 was eluted from an iThemba Labs generator with a total of 4 mL of 0.1 M HCl. The eluted [^68Ga]GaCl3 solution was added to 2 mL of concentrated HCl. This radioactive mixture was then added to a DGA resin column and washed with 3 mL of 5 M HCl. The column was then dried with air and the [^68Ga]GaCl3 (0.10-0.50 GBq) was eluted with 0.5 mL of water into a vial containing a solution of the unlabeled precursor (25 μg) in 0.7 mL HEPES buffer (2 M, pH 5.3). The reaction mixture was heated in a microwave oven (Danby; DMW7700WDB) for 1 min at power setting 2. The mixture was purified by semi-prep HPLC and quality control was performed via analytical HPLC with the co-injection of the unlabeled standard with a one-twelfth of the radiotracer. Radiochemical yields (decay-corrected) were >50% and radiochemical purities were >95%.
Animal experiments were performed in accordance with guidelines established by the Canadian Council on Animal Care, under a research protocol approved by the Animal Ethics Committee of the University of British Columbia. For all studies, male NOD.Cg-Rag1tm1Momll2rgtm1Wjl/SzJ (NRG) mice were used and cells injected in a 100 μL solution of 1:1 ratio of PBS/Matrigel. For preclinical imaging and biodistribution studies, 5×10^6 cells of Z138, cells were subcutaneously inoculated on the left or right flank and tumors were grown to a size of 200-300 mm^3. […]
Under isoflurane anesthesia (2-2.5% isoflurane in 2 L/min 02), mice were injected intravenously with [^68Ga]Ga-BL34L6 or [^68Ga]Ga-BL34L7. Mice were euthanized by CO2 inhalation after anesthesia with isoflurane. Tissues were harvested, washed in PBS, patted dry, weighed, and then assayed radioactivity on a gamma counter. Counted radioactivities were converted to percentage injected dose per gram of tissue (% ID/g) using a calibration curve.

[1] = Biodistribution: Small Intestine

SMILES | tissue uptake at 1 h (Biodistribution: Adrenals) [%ID/g] | tissue uptake at 1 h (Biodistribution: Blood) [%ID/g] | tissue uptake at 1 h (Biodistribution: Bone) [%ID/g] | tissue uptake at 1 h (Biodistribution: Brain) [%ID/g] | tissue uptake at 1 h (Biodistribution: Heart) [%ID/g] | tissue uptake at 1 h (Biodistribution: Kidneys) [%ID/g] | tissue uptake at 1 h (Biodistribution: Liver) [%ID/g] | tissue uptake at 1 h (Biodistribution: Lungs) [%ID/g] | tissue uptake at 1 h (Biodistribution: Muscle) [%ID/g] | tissue uptake at 1 h (Biodistribution: Pancreas) [%ID/g] | tissue uptake at 1 h [1] [%ID/g] | tissue uptake at 1 h (Biodistribution: Spleen) [%ID/g] | tissue uptake at 1 h (Biodistribution: Stomach) [%ID/g] | tissue uptake at 1 h (Biodistribution: Testes) [%ID/g] | tissue uptake at 1 h (Biodistribution: Z138 Tumor) [%ID/g] | tissue to tissue ratio at 1 h (Ratio Tumor-to-Blood) | tissue to tissue ratio at 1 h (Ratio Tumor-to-Bone) | tissue to tissue ratio at 1 h (Ratio Tumor-to-Kidney) | tissue to tissue ratio at 1 h (Ratio Tumor-to-Muscle) | tissue to tissue ratio at 1 h (Ratio Tumor-to-Pancreas) | other results
CC(C)NCCCC[C@H](NC(=O)[C@H]1CCC(=O)N[C@@H](CCCCNC(=O)[C@H](CCCCNC(=O)CCCc2ccc(I)cc2)NC(=O)[C@H](CS(=O)(=O)O)NC(=O)CN2CCN(CC(=O)O)CCN(CC(=O)O)CCN(CC(=O)O)CC2)C(=O)N[C@@H](Cc2ccc(O)cc2)C(=O)N[C@@H](CCCCNC(C)C)C(=O)N[C@H](CCCNC(=N)N)C(=O)N[C@@H](Cc2ccc3ccccc3c2)C(=O)N[C@H](C)C(=O)N1)C(N)=O [[^68Ga]Ga-BL34L11, metal not drawn] (K(X1)Y[Lys(iPr)][dR][2Nal][dA][dE][Lys(iPr)]-NH2; lactam N-7) | 4.99 | 18.7 | 1.53 | 0.29 | 4.53 | 5.39 | 3.7 | 8.36 | 1.39 | 1.67 | 1.28 | 2.35 | 0.97 | 2.14 | 6.55 | 0.35 | 4.32 | 1.27 | 4.85 | 3.91 | tissue uptake at 3 h (Biodistribution: Adrenals): 2.34 %ID/g; tissue uptake at 3 h (Biodistribution: Blood): 13.4 %ID/g; tissue uptake at 3 h (Biodistribution: Bone): 1.23 %ID/g; tissue uptake at 3 h (Biodistribution: Brain): 0.22 %ID/g; tissue uptake at 3 h (Biodistribution: Heart): 3.17 %ID/g; tissue uptake at 3 h (Biodistribution: Kidneys): 3.9 %ID/g; tissue uptake at 3 h (Biodistribution: Liver): 3.02 %ID/g; tissue uptake at 3 h (Biodistribution: Lungs): 6.64 %ID/g; tissue uptake at 3 h (Biodistribution: Muscle): 1.08 %ID/g; tissue uptake at 3 h (Biodistribution: Pancreas): 1.42 %ID/g; tissue uptake at 3 h [1]: 1.11 %ID/g; tissue uptake at 3 h (Biodistribution: Spleen): 2 %ID/g; tissue uptake at 3 h (Biodistribution: Stomach): 0.48 %ID/g; tissue uptake at 3 h (Biodistribution: Testes): 2.59 %ID/g; tissue uptake at 3 h (Biodistribution: Z138 Tumor): 11.3 %ID/g; tissue to tissue ratio at 3 h (Ratio Tumor-to-Blood): 0.85; tissue to tissue ratio at 3 h (Ratio Tumor-to-Bone): 10.3; tissue to tissue ratio at 3 h (Ratio Tumor-to-Kidney): 2.91; tissue to tissue ratio at 3 h (Ratio Tumor-to-Muscle): 10.5; tissue to tissue ratio at 3 h (Ratio Tumor-to-Pancreas): 7.95
CC(C)NCCCC[C@H](NC(=O)[C@H]1CCC(=O)N[C@@H](CCCCNC(=O)[C@H](CCCCNC(=O)CCCc2ccc(Cl)cc2)NC(=O)[C@H](CS(=O)(=O)O)NC(=O)CN2CCN(CC(=O)O)CCN(CC(=O)O)CCN(CC(=O)O)CC2)C(=O)N[C@@H](Cc2ccc(O)cc2)C(=O)N[C@@H](CCCCNC(C)C)C(=O)N[C@H](CCCNC(=N)N)C(=O)N[C@@H](Cc2ccc3ccccc3c2)C(=O)N[C@H](C)C(=O)N1)C(N)=O [[^68Ga]Ga-BL34L16, metal not drawn] (K(X5)Y[Lys(iPr)][dR][2Nal][dA][dE][Lys(iPr)]-NH2; lactam N-7) | 1.63 | 7.27 | 2.65 | 0.11 | 1.66 | 3.56 | 2.61 | 5.9 | 0.61 | 0.76 | 0.86 | 2.48 | 0.26 | 1.16 | 10.1 | 1.38 | 6.11 | 2.83 | 16.8 | 13.6 | tissue uptake at 3 h (Biodistribution: Adrenals): 0.7 %ID/g; tissue uptake at 3 h (Biodistribution: Blood): 2.7 %ID/g; tissue uptake at 3 h (Biodistribution: Bone): 2.01 %ID/g; tissue uptake at 3 h (Biodistribution: Brain): 0.06 %ID/g; tissue uptake at 3 h (Biodistribution: Heart): 0.67 %ID/g; tissue uptake at 3 h (Biodistribution: Kidneys): 2.2 %ID/g; tissue uptake at 3 h (Biodistribution: Liver): 2.33 %ID/g; tissue uptake at 3 h (Biodistribution: Lungs): 2.85 %ID/g; tissue uptake at 3 h (Biodistribution: Muscle): 0.32 %ID/g; tissue uptake at 3 h (Biodistribution: Pancreas): 0.31 %ID/g; tissue uptake at 3 h [1]: 0.41 %ID/g; tissue uptake at 3 h (Biodistribution: Spleen): 2.05 %ID/g; tissue uptake at 3 h (Biodistribution: Stomach): 0.16 %ID/g; tissue uptake at 3 h (Biodistribution: Testes): 0.68 %ID/g; tissue uptake at 3 h (Biodistribution: Z138 Tumor): 15.2 %ID/g; tissue to tissue ratio at 3 h (Ratio Tumor-to-Blood): 5.74; tissue to tissue ratio at 3 h (Ratio Tumor-to-Bone): 19.3; tissue to tissue ratio at 3 h (Ratio Tumor-to-Kidney): 6.92; tissue to tissue ratio at 3 h (Ratio Tumor-to-Muscle): 50.4; tissue to tissue ratio at 3 h (Ratio Tumor-to-Pancreas): 50.7
CC(C)NCCCC[C@H](NC(=O)[C@H]1CCC(=O)N[C@@H](CCCCNC(=O)[C@H](CS(=O)(=O)O)NC(=O)CN2CCN(CC(=O)O)CCN(CC(=O)O)CCN(CC(=O)O)CC2)C(=O)N[C@@H](Cc2ccc(O)cc2)C(=O)N(C)[C@@H](CCCCNC(C)C)C(=O)N[C@H](CCCNC(=N)N)C(=O)N[C@@H](Cc2ccc3ccccc3c2)C(=O)N[C@H](C)C(=O)N1)C(N)=O [[^68Ga]Ga-BL34N1, metal not drawn] (K([Cya-DOTA])Y[NMeLys(iPr)][dR][2Nal][dA][dE][Lys(iPr)]-NH2; lactam N-7) | 0.17 | 0.32 | 0.13 | 0.02 | 0.12 | 2.7 | 0.71 | 0.44 | 0.09 | 0.08 | 0.19 | 0.26 | 0.05 | 0.18 | 12 | 37.7 | 92.2 | 4.6 | 157 | 146 | 
